# US12310975B2, “Modulators of BCL6 proteolysis and associated methods of use” (Arvinas Operations, Inc., priority 2019, dated 2025)
# Target: BCL6 (Homo sapiens (Human), UniProt P41182)
# Test: Immunofluorescence high content imaging of BCL6 degradation in T47D cells
# Format: cell-based
# Details: T47D cells
# Outline: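 Following a 3-day incubation with serially diluted bifunctional compounds (final top 0.1 or 1 μM), T47D cells were PFA-fixed and immunostained for BCL6. Nuclear BCL6 signal was captured on a high-content imager.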
SMILES,Dmax,IC50
"CNC(=O)COc1cc2cc(Nc3nc(N4CC5(CCN(CC6CCN(c7cccc8c7C(=O)N(C7CCC(=O)NC7=O)C8=O)CC6)CC5)C4)ncc3Cl)ccc2n(C(C)C)c1=O (stereo not drawn) [compound 426, 2-{[6-({5-chloro-2-[7-({1-[2-(2,6-dioxopiperidin-3-yl)-1,3-dioxo-2,3-dihydro-1H-isoindol-4-yl]piperidin-4-yl}methyl)-2,7-diazaspiro[3.5]nonan-2-yl]pyrimidin-4-yl}amino)-2-oxo-1-(propan-2-yl)-1,2-dihydroquinolin-3-yl]oxy}-N-methylacetamide]",≥ 70%,
"CNC(=O)COc1cc2cc(Nc3nc(N4CCC5(CC4)CC(OC4CCN(c6cccc7c6CN(C6CCC(=O)NC6=O)C7=O)CC4)C5)ncc3Cl)ccc2n(C(C)C)c1=O (stereo not drawn) [compound 427, 2-{[6-({5-chloro-2-[2-({1-[2-(2,6-dioxopiperidin-3-yl)-1-oxo-2,3-dihydro-1H-isoindol-4-yl]piperidin-4-yl}oxy)-7-azaspiro[3.5]nonan-7-yl]pyrimidin-4-yl}amino)-2-oxo-1-(propan-2-yl)-1,2-dihydroquinolin-3-yl]oxy}-N-methylacetamide]",≥ 70%,< 10 nM
"CNC(=O)COc1cc2cc(Nc3nc(N4CCC(CN5CCC(c6cc(C(=O)N7CCC7)cc(N7CCC(=O)NC7=O)c6)CC5)CC4)ncc3Cl)ccc2n(C(C)C)c1=O [compound 428, 2-{[6-({2-[4-({4-[3-(azetidine-1-carbonyl)-5-(2,4-dioxo-1,3-diazinan-1-yl)phenyl]piperidin-1-yl}methyl)piperidin-1-yl]-5-chloropyrimidin-4-yl}amino)-2-oxo-1-(propan-2-yl)-1,2-dihydroquinolin-3-yl]oxy}-N-methylacetamide]",,≥ 100 nM
"CNC(=O)COc1cc2cc(Nc3nc(N4CCC(OC5CC6(C5)CN(c5ccc(C(=O)NC7CCC(=O)NC7=O)c(OC)c5)C6)CC4)ncc3Cl)ccc2n(C(C)C)c1=O (stereo not drawn) [compound 429, 4-[6-({1-[5-chloro-4-({3-[(methylcarbamoyl)methoxy]-2-oxo-1-(propan-2-yl)-1,2-dihydroquinolin-6-yl}amino)pyrimidin-2-yl]piperidin-4-yl}oxy)-2-azaspiro[3.3]heptan-2-yl]-N-(2,6-dioxopiperidin-3-yl)-2-methoxybenzamide]",≥ 70%,< 10 nM
"CNC(=O)COc1cc2cc(Nc3nc(N4CCC(OC5CC6(C5)CN(c5cccc(C(=O)NC7CCC(=O)NC7=O)c5F)C6)CC4)ncc3Cl)ccc2n(C(C)C)c1=O (stereo not drawn) [compound 430, 3-[6-({1-[5-chloro-4-({3-[(methylcarbamoyl)methoxy]-2-oxo-1-(propan-2-yl)-1,2-dihydroquinolin-6-yl}amino)pyrimidin-2-yl]piperidin-4-yl}oxy)-2-azaspiro[3.3]heptan-2-yl]-N-(2,6-dioxopiperidin-3-yl)-2-fluorobenzamide]",50 to 70%,10 to 50 nM
"CNC(=O)COc1cc2cc(Nc3nc(N4CCC(OC5CC6(CCN(c7ccc8c(c7)CN(C7CCC(=O)NC7=O)C8=O)CC6)C5)CC4)ncc3Cl)ccc2n(C(C)C)c1=O (stereo not drawn) [compound 431, 2-{[6-({5-chloro-2-[4-({7-[2-(2,6-dioxopiperidin-3-yl)-1-oxo-2,3-dihydro-1H-isoindol-5-yl]-7-azaspiro[3.5]nonan-2-yl}oxy)piperidin-1-yl]pyrimidin-4-yl}amino)-2-oxo-1-(propan-2-yl)-1,2-dihydroquinolin-3-yl]oxy}-N-methylacetamide]",50 to 70%,< 10 nM
"CNC(=O)COc1cc2cc(Nc3nc(N4CCC(OC5CC6(CCN(c7ccc(C(=O)NC8CCC(=O)NC8=O)c(OC)c7)CC6)C5)CC4)ncc3Cl)ccc2n(C(C)C)c1=O (stereo not drawn) [compound 432, 4-[2-({1-[5-chloro-4-({3-[(methylcarbamoyl)methoxy]-2-oxo-1-(propan-2-yl)-1,2-dihydroquinolin-6-yl}amino)pyrimidin-2-yl]piperidin-4-yl}oxy)-7-azaspiro[3.5]nonan-7-yl]-N-(2,6-dioxopiperidin-3-yl)-2-methoxybenzamide]",≥ 70%,10 to 50 nM
"CNC(=O)COc1cc2cc(Nc3nc(N4CCC(OC5CC6(CCN(c7cccc(C(=O)NC8CCC(=O)NC8=O)c7F)CC6)C5)CC4)ncc3Cl)ccc2n(C(C)C)c1=O (stereo not drawn) [compound 433, 3-[2-({1-[5-chloro-4-({3-[(methylcarbamoyl)methoxy]-2-oxo-1-(propan-2-yl)-1,2-dihydroquinolin-6-yl}amino)pyrimidin-2-yl]piperidin-4-yl}oxy)-7-azaspiro[3.5]nonan-7-yl]-N-(2,6-dioxopiperidin-3-yl)-2-fluorobenzamide]",≥ 70%,
"CNC(=O)COc1cc2cc(Nc3nc(N4CCC(OC5CCC6(CC5)CN(c5cccc7c5C(=O)N(C5CCC(=O)NC5=O)C7=O)C6)CC4)ncc3Cl)ccc2n(C(C)C)c1=O (stereo not drawn) [compound 434, 2-{[6-({5-chloro-2-[4-({2-[2-(2,6-dioxopiperidin-3-yl)-1,3-dioxo-2,3-dihydro-1H-isoindol-4-yl]-2-azaspiro[3.5]nonan-7-yl}oxy)piperidin-1-yl]pyrimidin-4-yl}amino)-2-oxo-1-(propan-2-yl)-1,2-dihydroquinolin-3-yl]oxy}-N-methylacetamide]",50 to 70%,< 10 nM
"CNC(=O)COc1cc2cc(Nc3nc(N4CCC(CN5CC6(CCN(c7ccc8c(c7)CN(C7CCC(=O)NC7=O)C8=O)CC6)C5)CC4)ncc3Cl)ccc2n(C(C)C)c1=O (stereo not drawn) [compound 436, 2-{[6-({5-chloro-2-[4-({7-[2-(2,6-dioxopiperidin-3-yl)-1-oxo-2,3-dihydro-1H-isoindol-5-yl]-2,7-diazaspiro[3.5]nonan-2-yl}methyl)piperidin-1-yl]pyrimidin-4-yl}amino)-2-oxo-1-(propan-2-yl)-1,2-dihydroquinolin-3-yl]oxy}-N-methylacetamide]",≥ 70%,< 10 nM
"CNC(=O)COc1cc2cc(Nc3nc(N4CCC(CN5CCC6(CCN(c7ccc8c(c7)CN(C7CCC(=O)NC7=O)C8=O)C6)C5)CC4)ncc3Cl)ccc2n(C(C)C)c1=O (stereo not drawn) [compound 437, 2-{[6-({5-chloro-2-[4-({7-[2-(2,6-dioxopiperidin-3-yl)-1-oxo-2,3-dihydro-1H-isoindol-5-yl]-2,7-diazaspiro[4.4]nonan-2-yl}methyl)piperidin-1-yl]pyrimidin-4-yl}amino)-2-oxo-1-(propan-2-yl)-1,2-dihydroquinolin-3-yl]oxy}-N-methylacetamide]",≥ 70%,< 10 nM
"CNC(=O)COc1cc2cc(Nc3nc(N4CCC(CN5CC6(CCN(c7ccc(C(=O)NC8CCC(=O)NC8=O)c(OC)c7)CC6)C5)CC4)ncc3Cl)ccc2n(C(C)C)c1=O (stereo not drawn) [compound 438, 4-[2-({1-[5-chloro-4-({3-[(methylcarbamoyl)methoxy]-2-oxo-1-(propan-2-yl)-1,2-dihydroquinolin-6-yl}amino)pyrimidin-2-yl]piperidin-4-yl}methyl)-2,7-diazaspiro[3.5]nonan-7-yl]-N-(2,6-dioxopiperidin-3-yl)-2-methoxybenzamide]",≥ 70%,10 to 50 nM
"CNC(=O)COc1cc2cc(Nc3nc(N4CCC(CN5CC6(CCN(c7cccc8c7C(=O)N(C7CCC(=O)NC7=O)C8=O)CC6)C5)CC4)ncc3Cl)ccc2n(C(C)C)c1=O (stereo not drawn) [compound 439, 2-{[6-({5-chloro-2-[4-({7-[2-(2,6-dioxopiperidin-3-yl)-1,3-dioxo-2,3-dihydro-1H-isoindol-4-yl]-2,7-diazaspiro[3.5]nonan-2-yl}methyl)piperidin-1-yl]pyrimidin-4-yl}amino)-2-oxo-1-(propan-2-yl)-1,2-dihydroquinolin-3-yl]oxy}-N-methylacetamide]",50 to 70%,< 10 nM
"CNC(=O)COc1cc2cc(Nc3nc(N4CCC(CN5CC6(CCN(c7cccc(C(=O)NC8CCC(=O)NC8=O)c7F)CC6)C5)CC4)ncc3Cl)ccc2n(C(C)C)c1=O (stereo not drawn) [compound 440, 3-[2-({1-[5-chloro-4-({3-[(methylcarbamoyl)methoxy]-2-oxo-1-(propan-2-yl)-1,2-dihydroquinolin-6-yl}amino)pyrimidin-2-yl]piperidin-4-yl}methyl)-2,7-diazaspiro[3.5]nonan-7-yl]-N-(2,6-dioxopiperidin-3-yl)-2-fluorobenzamide]",≥ 70%,< 10 nM
"CNC(=O)COc1cc2cc(Nc3nc(N4CCC(CN5CC6(CCN(c7cccc(C(=O)NC8CCC(=O)NC8=O)c7OC)CC6)C5)CC4)ncc3Cl)ccc2n(C(C)C)c1=O (stereo not drawn) [compound 441, 3-[2-({1-[5-chloro-4-({3-[(methylcarbamoyl)methoxy]-2-oxo-1-(propan-2-yl)-1,2-dihydroquinolin-6-yl}amino)pyrimidin-2-yl]piperidin-4-yl}methyl)-2,7-diazaspiro[3.5]nonan-7-yl]-N-(2,6-dioxopiperidin-3-yl)-2-methoxybenzamide]",,≥ 100 nM
"CNC(=O)COc1cc2cc(Nc3nc(N4CCC(CN5CCC6(CC5)CN(c5cccc7c5CN(C5CCC(=O)NC5=O)C7=O)C6)CC4)ncc3Cl)ccc2n(C(C)C)c1=O (stereo not drawn) [compound 442, 2-{[6-({5-chloro-2-[4-({2-[2-(2,6-dioxopiperidin-3-yl)-1-oxo-2,3-dihydro-1H-isoindol-4-yl]-2,7-diazaspiro[3.5]nonan-7-yl}methyl)piperidin-1-yl]pyrimidin-4-yl}amino)-2-oxo-1-(propan-2-yl)-1,2-dihydroquinolin-3-yl]oxy}-N-methylacetamide]",≥ 70%,< 10 nM
"CNC(=O)COc1cc2cc(Nc3nc(N4CCC5(CC4)CN(CC4CCN(c6cccc7c6CN(C6CCC(=O)NC6=O)C7=O)CC4)C5)ncc3Cl)ccc2n(C(C)C)c1=O (stereo not drawn) [compound 443, 2-{[6-({5-chloro-2-[2-({1-[2-(2,6-dioxopiperidin-3-yl)-1-oxo-2,3-dihydro-1H-isoindol-4-yl]piperidin-4-yl}methyl)-2,7-diazaspiro[3.5]nonan-7-yl]pyrimidin-4-yl}amino)-2-oxo-1-(propan-2-yl)-1,2-dihydroquinolin-3-yl]oxy}-N-methylacetamide]",50 to 70%,< 10 nM
